Reference: the supplement of paper PMC11451515

Tested on: SEM cells
Assay: cell viability relative to DMSO control; higher = less cytotoxic
Conditions: 48 h
Summary of the method: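 In 1536-well plates, 5 μl of leukemia cells were seeded per well: 500 cells/well for NOMO1 or SEM and 1000 cells/well for P12-Ichikawa. Each line had first been adapted for at least four passages in each medium. Library compounds in DMSO were pin-dosed at 11 threefold concentrations between 47 μM and 0.79 nM, and CellTiter-Glo One luminescence was read after 48 h at 37°C. Viability is a per-plate percentage relative to DMSO wells, with cell-free wells as background.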

[1] = HPLM + 10% dialyzed FBS, 0.000781 µM
[2] = HPLM + 10% dialyzed FBS, 0.00234 µM
[3] = HPLM + 10% dialyzed FBS, 0.00702 µM
[4] = HPLM + 10% dialyzed FBS, 0.0211 µM
[5] = HPLM + 10% dialyzed FBS, 0.0632 µM
[6] = HPLM + 10% dialyzed FBS, 0.19 µM
[7] = HPLM + 10% dialyzed FBS, 0.569 µM
[8] = HPLM + 10% dialyzed FBS, 1.71 µM
[9] = HPLM + 10% dialyzed FBS, 5.12 µM
[10] = HPLM + 10% dialyzed FBS, 15.4 µM
[11] = HPLM + 10% dialyzed FBS, 46.1 µM
[12] = RPMI 5 mM glucose + 10% FBS, 0.000781 µM
[13] = RPMI 5 mM glucose + 10% FBS, 0.00234 µM
[14] = RPMI 5 mM glucose + 10% FBS, 0.00702 µM
[15] = RPMI 5 mM glucose + 10% FBS, 0.0211 µM
[16] = RPMI 5 mM glucose + 10% FBS, 0.0632 µM
[17] = RPMI 5 mM glucose + 10% FBS, 0.19 µM
[18] = RPMI 5 mM glucose + 10% FBS, 0.569 µM
[19] = RPMI 5 mM glucose + 10% FBS, 1.71 µM
[20] = RPMI 5 mM glucose + 10% FBS, 5.12 µM
[21] = RPMI 5 mM glucose + 10% FBS, 15.4 µM
[22] = RPMI 5 mM glucose + 10% FBS, 46.1 µM
[23] = RPMI 5 mM glucose + 10% dialyzed FBS, 0.000781 µM
[24] = RPMI 5 mM glucose + 10% dialyzed FBS, 0.00234 µM
[25] = RPMI 5 mM glucose + 10% dialyzed FBS, 0.00702 µM
[26] = RPMI 5 mM glucose + 10% dialyzed FBS, 0.0211 µM
[27] = RPMI 5 mM glucose + 10% dialyzed FBS, 0.0632 µM
[28] = RPMI 5 mM glucose + 10% dialyzed FBS, 0.19 µM
[29] = RPMI 5 mM glucose + 10% dialyzed FBS, 0.569 µM
[30] = RPMI 5 mM glucose + 10% dialyzed FBS, 1.71 µM
[31] = RPMI 5 mM glucose + 10% dialyzed FBS, 5.12 µM
[32] = RPMI 5 mM glucose + 10% dialyzed FBS, 15.4 µM
[33] = RPMI 5 mM glucose + 10% dialyzed FBS, 46.1 µM

| SMILES | cell viability [1] | cell viability [2] | cell viability [3] | cell viability [4] | cell viability [5] | cell viability [6] | cell viability [7] | cell viability [8] | cell viability [9] | cell viability [10] | cell viability [11] | cell viability [12] | cell viability [13] | cell viability [14] | cell viability [15] | cell viability [16] | cell viability [17] | cell viability [18] | cell viability [19] | cell viability [20] | cell viability [21] | cell viability [22] | cell viability [23] | cell viability [24] | cell viability [25] | cell viability [26] | cell viability [27] | cell viability [28] | cell viability [29] | cell viability [30] | cell viability [31] | cell viability [32] | cell viability [33] |
| --- | --- | --- | --- | --- | --- | --- | --- | --- | --- | --- | --- | --- | --- | --- | --- | --- | --- | --- | --- | --- | --- | --- | --- | --- | --- | --- | --- | --- | --- | --- | --- | --- | --- |
| C\C1=C\N([C@H]2C[C@H](N=[N+]=[N-])[C@@H](CO)O2)C(=O)NC1=O | 65.4% | 68.8% | 82.4% | 71% | 80.8% | 93.1% | 95.4% | 86.5% | 81.6% | 84.3% | 79.3% | 82.5% | 85.6% | 88.9% | 89.3% | 84.8% | 101% | 88.4% | 104% | 92.2% | 101% | 82.2% | 72.2% | 83.9% | 96% | 98.4% | 117% | 92% | 105% | 71.8% | 93.2% | 85.7% | 62.4% |
| O=C(/C=C/c1c(C(=O)[O-])[nH]c2cc(Cl)cc(Cl)c12)Nc1ccccc1 | 89.9% | 120% | 122% | 122% | 127% | 114% | 123% | 132% | 124% | 115% | 73.1% | 110% | 113% | 106% | 102% | 118% | 112% | 121% | 122% | 129% | 118% | 65.1% | 95.9% | 103% | 110% | 119% | 104% | 125% | 101% | 121% | 128% | 118% | 60% |
| CC(=O)CC(C1=CC=CC=C1)C/2=C(O)/C3=CC=CC=C3OC2=O (stereo unspecified) | 80.7% | 101% | 114% | 71.7% | 119% | 114% | 103% | 110% | 116% | 113% | 120% | 110% | 104% | 105% | 73.1% | 105% | 105% | 115% | 118% | 115% | 125% | 137% | 84.4% | 103% | 114% | 73.4% | 111% | 123% | 119% | 125% | 128% | 126% | 123% |
| CC(C)n1nc(-c2ccc3oc(N)nc3c2)c2c(N)ncnc21 | 87.7% | 73.7% | 63.3% | 56.4% | 44.5% | 38.5% | 31.8% | 29.9% | 23.7% | 18.6% | 3.79% | 106% | 101% | 70.3% | 62.4% | 59.3% | 42.4% | 38.3% | 29.1% | 25.1% | 4.15% | 3.72% | 78.2% | 78.8% | 70.9% | 54.8% | 52.6% | 44% | 39.7% | 36.1% | 28.6% | 15.8% | 4.72% |
| CC(C)[C@@H](C[S+](=O)([O-])C(C)C)N1C(=O)[C@@](C)(CC(=O)O)C[C@H](c2cccc(Cl)c2)[C@H]1c1ccc(Cl)cc1 | 124% | 107% | 125% | 117% | 115% | 106% | 85.9% | 77.1% | 54.3% | 31.8% | 18.7% | – | – | – | – | – | – | – | – | – | – | – | 127% | 109% | 121% | 110% | 128% | 113% | 100% | 70.9% | 47.8% | 26.5% | 18.5% |
| Cc1nccn1CC1CCc2c(c3ccccc3n2C)C1=O (stereo unspecified) | 118% | 120% | 135% | 132% | 142% | 120% | 110% | 117% | 104% | 116% | 92% | 121% | 119% | 127% | 114% | 115% | 105% | 127% | 104% | 108% | 109% | 85.4% | – | – | – | – | – | – | – | – | – | – | – |
| Cc1cccc(C#Cc2ccccc2)n1 | 119% | 140% | 123% | 134% | 132% | 117% | 137% | 134% | 116% | 106% | 89.5% | 128% | 118% | 109% | 123% | 128% | 118% | 128% | 121% | 102% | 105% | 84.4% | – | – | – | – | – | – | – | – | – | – | – |
| Cc1c(Cn2c(C)nc3c(C(=O)O)cc(N4CCOCC4)cc32)cccc1C(F)(F)F | 84.5% | 101% | 109% | 111% | 101% | 97.1% | 115% | 109% | 103% | 117% | 103% | 93.2% | 115% | 102% | 106% | 103% | 112% | 119% | 114% | 107% | 89.1% | 88.5% | 94.1% | 105% | 100% | 109% | 112% | 95.5% | 103% | 95.5% | 90.1% | 92.3% | 79.8% |
